Measured values reported in US20090208508A1, “NOVEL USE OF UBIQUITIN C-TERMINAL HYDROLASE-L1” (SK CORPORATION, priority 2005, published 2009).

How the values were obtained:
UCH-L1 [1] = assay: Preliminary experiments: UCH-L1 expression level with siRNA on mouse-base sequences; format: cell-based
UCH-L1 [2] = assay: Preliminary experiments: UCH-L1 expression level with siRNA on human-base sequences; format: cell-based
UCH-L1 [3] = assay: Western blotting of UCH-L1 expression in B16F10 stable cells expressing UCH-L1 specific RNAi (lentivirus); format: cell-based, mouse; conditions: Zeocin-selected, in comparison with normal B16F10 cells and cells expressing irrelevant RNAi (SEQ ID No. 3)
Method: The expression level of UCH-L1 in B16F10 mouse melanoma cell line was analyzed by using the Western blotting with anti-UCH-L1 antibody in comparison with that of H157 lung cancer cell line overexpressing UCH-L1. It was determined that UCH-L1 is expressed also in B16F10 cell lines.
B16F10 cells (2.5×10^5 cells, 70˜80% confluency) were seeded on the cell culture dish. After 24 h, these cells were infected with 1 mL of lentivirus (VCA™, Vectorcorea, Inc., Seoul, Korea) expressing irrelevant RNAi or UCH-L1 specific RNAi. 500 μL ( ? ) (virus titer 1[…]10^7 IFU/mL) of lentivirus expressing the sequence specific shRNAi (SEQ ID Nos. 3, 8, 9, and 10) was used for infection of 2.5×10^5 of B16F10 cells.
Polyburene ([…]) was added thereto, then the cell culture dish was shaken slowly up and down. After incubation for 6 h at 37[…] under 5% CO2, the virus soup was changed with the RPMI-1640 supplemented with 10% FBS. B16F10 cells were infected at twice with lentivirus on 24th hour after the first infection. However the incubation time for second infection was 12 h, not 6 h. After 24 h from the second infection, B16F 10 cells were harvested with trypsin and subcultured on the other dish by diluting the cells with RPMI-1640 (1/16 dilution).
After 24 h, cells were maintained with the cell culture media with 5 μg/mL of Zeocin. For about 14 days, the cell culture media was changed with fresh media containing same amount of Zeocin every three days. On 14th day after start of selection with Zeocin, only cells having the resistance to Zeocin were survival and these cells were infected with lentivirus stably expressing UCH-L1 specific RNAi (shRNAi, short hairpin RNA). On 14th day after start of selection with Zeocin, the colony was formed by the cells having the resistance to Zeocin. The colonized cells were selected and re-subcultured with fresh media. From this method, we could prepare UCH-L1 expression reduced stable cell lines. […]

[4] = tested on: B16F10 mouse melanoma cells; assay: Experimental pulmonary metastasis: B16F10 stable cells injected into tail vein, black colonies on lung surface counted; format: in vivo, BALB/C nude mouse; conditions: 1x10^6 cells single-injected into tail vein, 14th day after injection, vs control B16F10 cells expressing irrelevant RNAi
Method: We tried to elucidate whether UCH-L1 is a key target molecule related to cancer metastasis through the experimental metastasis using animal model. Normal B16F10 mouse melanoma cells are highly invasive and its first target organ in metastatic process is lung. Using lentivirus-based system, we prepared the B16F10 stable cells in which UCH-L1 was knock-downed.
After preparing B16F10 stable cells, we examined whether the metastasis to lung was decreased when the B16F 10 stable cells were injected intravenously into the tail vein.
As stated above, after the UCH-L1 expression knock-downed B 16F 10 stable cells were selected with Zeocin, these cells (1[…]10^6 cells) were single-injected into the tail vein of BALB/C nude mouse. On 14th day after injection, the metastasis to lung was investigated. (For control set, BALB/C mouse were injected with same amount of B16F10 stable cells expressing irrelevant RNAi (control lentiviral vector))

“ha: UCH-L1 specific shRNAi (SEQ ID No. 8), target sequence common to human and mouse, expressed by lentivirus (guide CCCGAGATGCTGAACAAAG; listed as Homo sapiens)” was tested, and the “expression level of UCH-L1” value (UCH-L1 [1]) was “effectively reduced”, the “expression level of UCH-L1” value (UCH-L1 [2]) was “effectively reduced” and the “expression of UCH-L1 (Western blotting)” value (UCH-L1 [3]) was “reduced”. For the same substance, the “reduction of metastasis to lung (black spherical colonies on lung surface)” value [4] was 92%.

With “mb: UCH-L1 specific shRNAi (SEQ ID No. 10), mouse target sequence, expressed by lentivirus (guide CCTAAAGTTTACTTCATGAAG; listed as Mus musculus)” the “expression level of UCH-L1” value (UCH-L1 [1]) was “effectively reduced”, the “expression of UCH-L1 (Western blotting)” value (UCH-L1 [3]) was “reduced” and the “reduction of metastasis to lung (black spherical colonies on lung surface)” value [4] was 62%.

“ma: UCH-L1 specific shRNAi (SEQ ID No. 9), mouse target sequence, expressed by lentivirus (guide AGCTGAAGCCGATGGAGATTA; listed as Mus musculus)” was tested, and the “expression of UCH-L1 (Western blotting)” value (UCH-L1 [3]) was “not reduced”.
